Laboratory results reported in US20220249441A1, “Homodimeric Tobramycin Adjuvant Repurposes Novobiocin as an Effective Antibacterial Agent Against Gram-Negative Bacteria” (priority 2019, published 2022).

Legend:
[1] = test system: P. aeruginosa PAO1 and efflux deficient mutants, MDR/XDR isolates; test: microbe, parasite or virus in culture; assay type: cell-based, Pseudomonas aeruginosa
Experimental: Antimicrobial Susceptibility Assay. The in vitro antimicrobial activity of all compounds/antibiotics against a panel of bacteria was evaluated by microbroth dilution method in accordance with the Clinical and Laboratory Standards Institute (CLSI) guidelines (using ATCC strains as quality control strains) (54). […] The broth with or without bacterial cells was used as positive or negative control, respectively.

[2] = test system: panel of Gram-positive and Gram-negative bacteria; test: Antimicrobial susceptibility assay against a panel of bacteria; assay type: cell-based; settings: some isolates
Experimental: (§1) Antimicrobial Susceptibility Assay. The in vitro antimicrobial activity of all compounds/antibiotics against a panel of bacteria was evaluated by microbroth dilution method in accordance with the Clinical and Laboratory Standards Institute (CLSI) guidelines (using ATCC strains as quality control strains) (54). Overnight grown bacterial cultures were diluted in saline to achieve a 0.5 McFarland turbidity, followed by 1:50 dilution in Mueller-Hinton broth (MHB) for inoculation to a final concentration of approximately 5×10^5 CFU/mL. […] The lowest concentration that prevented the visible growth of bacteria was defined as the MIC for each antimicrobial agent. The broth with or without bacterial cells was used as positive or negative control, respectively.

P. aeruginosa = test: Checkerboard assay (antibiotic + adjuvant combination MIC); assay type: cell-based, Pseudomonas aeruginosa; settings: compound at 8 μM
Experimental: as §1
Checkerboard Assay. Combination studies with different antibiotics were performed in 96-well plates as previously described (19). Briefly, the antibiotic of interest was serially diluted in MHB along the abscissa while the adjuvant (tobramycin homodimer) was serially diluted in MHB along the ordinate. This creates a 10×7 matrices wherein each well consists of a combination of different antibiotic and adjuvant concentrations. Overnight grown bacterial cultures were diluted in saline to achieve a 0.5 McFarland turbidity, followed by 1:50 dilution in Mueller-Hinton broth (MHB) for inoculation to a final concentration of approximately 5×10^5 CFU/mL. […] MIC was recorded as wells with the lowest concentration of drugs with no bacterial growth. The fractional inhibitory concentration (FIC) for each antibiotic was calculated by dividing the MIC of the antibiotic in the presence of adjuvant by the MIC of the antibiotic alone. Similarly, the FIC of adjuvant was calculated by dividing the MIC of the adjuvant in the presence of antibiotic by the MIC of the adjuvant alone. FIC index is the sum of both FICs. FIC indices of ≤0.5 were deemed synergistic; >0.5-4, no interaction; and >4, antagonistic.

Cl.Cl.Cl.Cl.Cl.NC[C@H]1O[C@H](O[C@H]2[C@H](OCCCCCCCCCCCCN3CCN(c4cc5c(cc4F)c(=O)c(C(=O)O)cn5C4CC4)CC3)[C@@H](O)[C@H](N)C[C@@H]2N)[C@H](N)C[C@@H]1O [Compound 24]
some modest residual activity: intrinsic antimicrobial activity [2]
8 µg/mL: MIC of ATM in the presence of compound (P. aeruginosa; PA 259-96918) | MIC of IPM in the presence of compound (P. aeruginosa; PA 262-101856) | MIC of IPM in the presence of compound (P. aeruginosa; PA 264-104354) | MIC of ATM in the presence of compound (P. aeruginosa; PA 88949) | MIC of ATM in the presence of compound (P. aeruginosa; PA 91433) | MIC of IPM in the presence of compound (P. aeruginosa; PA 91433) | MIC of ATM in the presence of compound (P. aeruginosa; PA 100036) | MIC of IPM in the presence of compound (P. aeruginosa; PA 109084) | MIC of ATM in the presence of compound (P. aeruginosa; PA 114228)
4 µg/mL: MIC ([1]; PAO200 (first column so headed)) | MIC of CAZ in the presence of compound (P. aeruginosa; PA 262-101856) | MIC of ATM in the presence of compound (P. aeruginosa; PA 86052) | MIC of CAZ in the presence of compound (P. aeruginosa; PA 86052) | MIC of IPM in the presence of compound (P. aeruginosa; PA 86052) | MIC of CAZ in the presence of compound (P. aeruginosa; PA 100036) | MIC of IPM in the presence of compound (P. aeruginosa; PA 100036) | MIC of CAZ in the presence of compound (P. aeruginosa; PA 101243) | MIC of IPM in the presence of compound (P. aeruginosa; PA 101243) | MIC of ATM in the presence of compound (P. aeruginosa; PA 101885) | MIC of CAZ in the presence of compound (P. aeruginosa; PA 101885) | MIC of CAZ in the presence of compound (P. aeruginosa; PA 114228)
2 µg/mL: MIC ([1]; PA0750 (efflux-deficient)) | MIC ([1]; PAO200 (second column so headed)) | MIC of Piperacillin + compound (P. aeruginosa; P. aeruginosa PAO1) | MIC of IPM in the presence of compound (P. aeruginosa; PA 260-97103) | MIC of IPM in the presence of compound (P. aeruginosa; PA 101885) | MIC of IPM in the presence of compound (P. aeruginosa; PA O750 (efflux-deficient))
0.25 µg/mL: MIC of Ceftazidime + compound (P. aeruginosa; P. aeruginosa PAO1) | MIC of ATM in the presence of compound (P. aeruginosa; PA 260-97103) | MIC of CAZ in the presence of compound (P. aeruginosa; PA 260-97103) | MIC of ATM in the presence of compound (P. aeruginosa; PA 101243) | MIC of CAZ in the presence of compound (P. aeruginosa; PAO1)
0.5 µg/mL: MIC of Aztreonam + compound (P. aeruginosa; P. aeruginosa PAO1) | MIC of CAZ in the presence of compound (P. aeruginosa; PA 91433) | MIC of IPM in the presence of compound (P. aeruginosa; PA 108590) | MIC of ATM in the presence of compound (P. aeruginosa; PAO1)
1 µg/mL: MIC of Imipenem + compound (P. aeruginosa; P. aeruginosa PAO1) | MIC of CAZ in the presence of compound (P. aeruginosa; PA 108590) | MIC of IPM in the presence of compound (P. aeruginosa; PA 114228) | MIC of IPM in the presence of compound (P. aeruginosa; PA O200 (efflux-deficient)) | MIC of IPM in the presence of compound (P. aeruginosa; PAO1)
64 µg/mL: MIC of CAZ in the presence of compound (P. aeruginosa; PA 264-104354) | MIC of IPM in the presence of compound (P. aeruginosa; PA 88949) | MIC of CAZ in the presence of compound (P. aeruginosa; PA 107092)
32 µg/mL: MIC ([1]; PAO1 (wild-type)) | MIC of CAZ in the presence of compound (P. aeruginosa; PA 88949) | MIC of ATM in the presence of compound (P. aeruginosa; PA 107092) | MIC of ATM in the presence of compound (P. aeruginosa; PA 109084) | MIC of CAZ in the presence of compound (P. aeruginosa; PA 109084)
0.13 µg/mL: MIC of ATM in the presence of compound (P. aeruginosa; PA 108590) | MIC of CAZ in the presence of compound (P. aeruginosa; PA O200 (efflux-deficient)) | MIC of ATM in the presence of compound (P. aeruginosa; PA O750 (efflux-deficient))
128 µg/mL: MIC of CAZ in the presence of compound (P. aeruginosa; PA 259-96918)
0.01 µg/mL: MIC of CAZ in the presence of compound (P. aeruginosa; PA O750 (efflux-deficient))
16 µg/mL: MIC of IPM in the presence of compound (P. aeruginosa; PA 259-96918) | MIC of ATM in the presence of compound (P. aeruginosa; PA 262-101856) | MIC of ATM in the presence of compound (P. aeruginosa; PA 264-104354) | MIC of IPM in the presence of compound (P. aeruginosa; PA 107092)
0.03 µg/mL: MIC of ATM in the presence of compound (P. aeruginosa; PA O200 (efflux-deficient))
